Assay results from the NIST ThermoML archive (doi:10.1021/je8002207).
Numbers after ± are expanded uncertainties.

What was measured:
[1] = Crystal; DTA
[2] = Molar enthalpy of transition or fusion; conditions: Crystal; DSC

SMILES	Normal melting temperature [1] [°C]	Molar enthalpy of transition or fusion [2] [kJ/mol]
CN[C@@]1(c2ccccc2Cl)CCCCC1=O [(R)-ketamine]	121.0 ± 0.5	28.7 ± 0.83
CN[C@]1(c2ccccc2Cl)CCCCC1=O [(S)-ketamine]	121.0 ± 0.5	28.7 ± 0.83
